The text below walks through data of patent US8466161B2, “Hydroxamate derivative, a production method for the same, and a pharmaceutical composition comprising the same” (Chong Kun Dang Pharmaceutical Corp., priority 2009, dated 2013).

For orientation: IC50 means the point on the concentration scale where inhibition reaches its midpoint. The low end stands for greater potency, the high end for weaker potency.

Series [1] concerns PC-3 (human prostate adenocarcinoma). In words: In vivo anticancer activity, PC-3 tumor transplantation model. Further details: species or system BALB/c nude mice (human tumor xenograft). The settings on record: for IR (%): Table 21. How it is done:
(§1) Male BALB/c nude mice (4-week old) used in human tumor transplantation studies were purchased from Central Animal Laboratory Inc. (Korea) or Orient Bio Inc. (Korea). The animals were permitted ad libitum access to sterile feed and water in a sterile breeding system at 23+0.5° C.
(§2) For use in tumor transplantation studies, the human cancer cell lines HCT116 (human colorectal carcinoma, CCL-247), PC-3 (human prostate adenocarcinoma, CRL-1435), and A549 (human lung carcinoma, CCL-185) were purchased from ATCC (American Type Culture Collection, Rockville, Md., USA).
(§3) HCT116 cells were cultured in an air incubator under conditions of 37° C. and 5% CO2 using McCoy'SA medium (Gibco BRL) containing 10% heat-inactivated fetal bovine serum (Gibco BRL) and 1% antibiotics-antymycotics (Gibco BRL). Cell lines other than the HCT116 cell line were cultured in an air incubator under conditions of 37° C. and 5% CO2 using RPM1640 medium (Gibco BRL) containing 10% heat-inactivated fetal bovine serum (Gibco BRL) and 1% antibiotics-antymycotics (Gibco BRL).
(§4) Studies on the in vivo transplantation of human cancer cells were carried out in the following manner. Human cancer cells (HCT116, PC-3, and A549) that proliferated in vitro were injected subcutaneously into the abdominal region of BALB/c nude mice and allowed to proliferate in vivo. 20-25 days after the injection, the mice were sacrificed by cervical dislocation, and the solid cancer that proliferated in each of the mice was isolated aseptically, and connective or necrotic tissue and skin was removed therefrom, thus collecting a fresh cancer tissue. 50 mg of a fragment was taken aseptically from the cancer tissue and inserted into a 16-gauge trocar which was then transplanted subcutaneously into the upper abdominal region of mice.
(§5) 15-30 days after the human cancer cell lines have been transplanted into the BALB/c nude mice, only mice in which the cancer cells have proliferated to a given size were selected and used in the experiment. When the tumor size in each of the test groups reached 100-200 mm^3 after cancer cell transplantation, the experiment was started.
(§6) The anticancer effect of each drug was evaluated based on the inhibition rate (IR %) of tumor volume that indicates the tumor volume at reference date in comparison with control groups. […] Tumor size=(short diameter)×(long diameter)/2 I.R.(%)=[1−(mean tumor size of drug-administered group)/(mean tumor size of control group)]×100

Series [2] relates to HCT116 (human colorectal carcinoma). In words: In vivo anticancer activity, HCT116 tumor transplantation model. Further details: species or system BALB/c nude mice (human tumor xenograft). How it is done: as §1, §2, §3, §4, §5, §6
The subject of series [3] is HL60 cell line. In words: Inhibitory effect on growth of HL60 cell line (MTT). It is filed as cell-based. The following applies: Homo sapiens, HL-60, 72 h, 3 days culture. As to the method: In the culture of HL60 cells, 10% FBS-containing RPMI1640 medium was used Each of test substances was serially diluted in DMSO to a concentration of 10 mg/ml and serially diluted in PBS to a final concentration ranging from 100 μg/ml to 0.03 μg/ml. 20 μl (micro-liter) of each of the serially diluted test substances and 180 μl (micro-liter) of a medium containing 60×10^4 cells/ml were added to a 96-well plate and cultured under conditions of 37° C. and 5% CO2 for 3 days. After completion of the culture, 50 μl (micro-liter) of a solution of 1.25 mg/ml MTT (3-(4,5-dimethylthiazol-2-yl)-2,5-diphenyltetrazolium bromide) in PBS was added to each well of the plate and incubated at 37° C. for 3 hours. The formed formazan crystal was dissolved in 150 μl (micro-liter) of DMSO, and the absorbance at 570 nm was measured.

For series [4], the target named is P450 (CYP3A4) (Homo sapiens, UniProt P08684). Description: P450 (CYP3A4) inhibitory activity (BFC fluorescent substrate). The settings on record: FIG. 6; in words. It counts as in vitro ADME. How it is done: P450 (CYP3A4) is a metabolic enzyme, and non-inhibition of the enzyme by a test compound means that the test substance has a low possibility of causing side effects by interaction with other drugs. Each of compounds used in the test was dissolved in DMSO (10 mg/ml), and the dilution of each test substance to 2×10^−2 mg/ml was additionally performed in 200 μl (micro-liter) of a test system containing an assay buffer. The final solvent concentration was not higher than 2%. The CYP3A4 protein inhibitory test system included a total assay volume (100 μl (micro-liter)) of a NADPH production system (3.3 mM glucose-6-phosphate, 0.4 units/ml glucose-6-phosphate dehydrogenase, 1.3 mM NADP+ and 3.3 mM MgCl2.6H2O in assay buffer) and a test compound in each well of a 96-well plate. After pre-incubation at 37° C. for 10 minutes, 100 μl (micro-liter) of a KPO4 assay buffer containing […] P450 protein and 50 uM BFC (7-benzyloxy-trifluoromethylcoumarin) fluorescent probe substrate was added to the test system, and an enzyme reaction in the test system having a total assay volume of 200 μl (micro-liter) was initiated. […] Irradiation with fluorescence was carried out at an excitation wavelength of 409 nm and an emission wavelength of 530 nm.

Series [5] deals with A549 (human lung carcinoma). Description: In vivo anticancer activity, A549 tumor transplantation model. Further details: species or system BALB/c nude mice (human tumor xenograft). The settings on record: for IR (%): Table 20. As to the method: as §1, §2, §3, §4, §5, §6
Series [6] in a line: in vivo. The following applies: BALB/c nude, mouse, ip.
A short description of series [7]: Maximum tolerated dose in the HCT116 xenograft experiments. The settings on record: BALB/c nude, mouse, in vivo, ip.
Series [8] deals with HDAC enzymes. Description: Effects against HDAC enzymes (BIOMOL kit, Hela nuclear extract). It is filed as biochemical. The following applies: 37° C. 1 hour.
Protocol: To measure effects against HDAC enzymes, a kit (BIOMOL International, LP) was used Each of test substances was dissolved in DMSO to a concentration of 10 mg/ml, and an assay buffer, an enzyme solution, a substrate and a staining reagent were prepared. […] Also, the staining reagent was a mixture of assay buffer (19/20), developer (1/20) and TSA (1/100). The assay buffer, the enzyme solution, the test substance and the substrate were added sequentially to a 96-well plate, stirred on a rocker for 3 minutes, and then incubated at 37° C. for 1 hour. After completion of the incubation, the staining reagent was added, and the mixture was stirred on a rocker for 1 minute and then incubated at 37° C. for 20 minutes (the staining reagent was mixed before addition).
For series [9] the following is noted: BALB/c nude, mouse, in vivo, ip, 2 weeks.
Where [10] appears, read: 60 mg/kg, b.i.wk(Mon, Thu), 3 wks, ip.
Setting [11] is: 80 mg/kg, b.i.wk(Mon, Thu), 3 wks, ip.
[12] abbreviates: 100 mg/kg, b.i.wk(Mon, Thu), 3 wks, ip.
[13] abbreviates: Table 18, 80 mg/kg/day, qd x 5, 2 wks, ip.
[14] abbreviates: Table 19, 40 mg/kg/day, qd x 5, 2 wks, ip.
[15] abbreviates: Table 19, 60 mg/kg/day, qd x 5, 2 wks, ip.

Chain of P450 (CYP3A4) (P08684 whole entry, species assumed): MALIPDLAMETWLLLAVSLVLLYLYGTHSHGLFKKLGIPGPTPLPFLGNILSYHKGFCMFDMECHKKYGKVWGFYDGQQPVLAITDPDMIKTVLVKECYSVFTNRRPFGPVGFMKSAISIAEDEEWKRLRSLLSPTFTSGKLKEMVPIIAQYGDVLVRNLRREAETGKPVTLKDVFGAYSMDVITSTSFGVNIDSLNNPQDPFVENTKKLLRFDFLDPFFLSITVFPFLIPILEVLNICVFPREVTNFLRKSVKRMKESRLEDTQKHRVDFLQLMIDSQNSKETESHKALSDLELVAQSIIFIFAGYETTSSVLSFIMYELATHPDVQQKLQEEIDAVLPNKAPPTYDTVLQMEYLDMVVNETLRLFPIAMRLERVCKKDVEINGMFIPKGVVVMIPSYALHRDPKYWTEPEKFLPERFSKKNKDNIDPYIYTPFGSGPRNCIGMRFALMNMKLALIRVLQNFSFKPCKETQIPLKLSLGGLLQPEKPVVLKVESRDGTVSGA

On to `CN1CCN(C(=O)N(CCCCCCC(=O)NO)c2ccc(-c3ccc4cnn(C)c4c3)cc2)CC1` [Compound 312, N-(7-(hydroxyamino)-7-oxoheptyl)-4-methyl-N-(4-(1-methyl-1H-indazol-6-yl)phenyl)piperazine-1-carboxamide], for which the “IR (%)” value in series [1] (setting [10]) turned out to be 39%; in series [1] (setting [11]) it was 39%; in series [1] (setting [12]), 59%; in [2] (Table 18, 20 mg/kg/day, qd x 5, 2 wks, ip), 51%; in series [2] (Table 18, 40 mg/kg/day, qd x 5, 2 wks, ip), 58%; in series [2] (Table 18, 60 mg/kg/day, qd x 5, 2 wks, ip), 70%. The “IR (%)” value is given as 81% in [2] (setting [13]); 52% in [2] (Table 22, 150 mg/kg, b.i.wk(Mon, Thu), 3 wks, p.o); 55% in [2] (Table 22, 180 mg/kg, b.i.wk(Mon, Thu), 3 wks, p.o); 69% in series [2] (Table 22, 210 mg/kg, b.i.wk(Mon, Thu), 3 wks, p.o); 50% in series [5] (setting [10]); 56% in series [5] (setting [11]). In addition, the “IR (%)” value in series [5] (setting [12]) is reported as 71%. For the same compound, the “inhibitory effects against prostate cancer (PC-3) compared to LBH 589” value in series [1] (twice a week for 3 weeks, in words) was “excellent inhibitory effects”. In addition, the “colon cancer (HCT 116) inhibitory effect compared to control drugs” value in series [2] (ip, qd x 5, 2 wks, in words) is on record as “excellent colon cancer inhibitory effects”. Moreover, the “inhibitory effect against colon cancer (HCT116) upon oral administration compared to LBH 589, SAHA and MGCD0103” value in [2] (oral, twice a week for 3 weeks, in words) was “excellent inhibitory effect”. This compound also showed a concentration for half-maximal inhibition (IC50) in [3] of 50 to 100 nM. In addition, the “P450 3A4 inhibition” value in series [4] was “did not inhibit”. In addition, the “P450 3A4 inhibitory activity relative to LBH 589” value in series [4] is on record as “lower than that of LBH 589”. The “inhibitory effect against non-small cell lung cancer (A549)” value in [5] (administered twice a week, in words) is “excellent inhibitory effect”.

For the compound `Cc1cc2cc(-c3ccc(N(CCCCCCC(=O)NO)C(=O)N4CCN(C)CC4)cc3)ccc2[nH]1` [Compound 334, N-(7-(hydroxyamino)-7-oxoheptyl)-4-methyl-N-(4-(2-methyl-1H-indol-5-yl)phenyl)piperazine-1-carboxamide], the figures for the “IR (%)” value in [2] (setting [14]) and in [2] (setting [15]) were 47% and 66%, respectively. This compound also yielded an IC50 in series [3] of 10 to 20 nM. Besides, in series [6], the MTD at 2 weeks is 60 mg/kg.

Regarding `CCN1CCN(C(=O)N(CCCCCCC(=O)NO)c2ccc(-c3ccc4cnn(C)c4c3)cc2)CC1` [Compound 336, 4-ethyl-N-(7-(hydroxyamino)-7-oxoheptyl)-N-(4-(1-methyl-1H-indazol-6-yl)phenyl)piperazine-1-carboxamide], the “IR (%)” value in series [2] (setting [14]) is listed as 56%; in series [2] (setting [15]), 75%; in series [2] (Table 19, 80 mg/kg/day, qd x 5, 2 wks, ip) it was 78%. Besides, in series [2] (ip, qd x 5, 2 wks, in words), the “colon cancer (HCT 116) inhibitory effect compared to control drugs” value is on record as “excellent inhibitory effects on colon cancer”. The IC50 in series [3] fell in the range of 50 to 100 nM. Further, the MTD at 2 weeks in [6] was determined as 80 mg/kg.

As to `Cc1[nH]c2ccccc2c1CCNCc1ccc(/C=C/C(=O)NO)cc1` [LBH 589, Panobinostat, reference compound], the “IR (%)” value was determined as 48% in series [1] (10 mg/kg/day, qd x 5, 3 wks); 40% in [2] (Table 18, 5 mg/kg/day, qd x 5, 2 wks, ip); 65% in series [2] (Table 18, 10 mg/kg/day, qd x 5, 2 wks, ip); 40% in series [2] (Table 19, 5 mg/kg/day, qd x 5, 2 wks, ip); 65% in series [2] (Table 19, 10 mg/kg/day, qd x 5, 2 wks, ip); 0% in [2] (Table 22, 50 mg/kg/day, qd x 5, 3 wks, p.o). Besides, the “IR (%)” value in series [5] (10 mg/kg/day, qd x 5, 3 wks) is recorded as 58%. This compound also returned an IC50 in series [3] of 20 to 50 nM. Moreover, the MTD at 2 weeks in series [6] was 10 mg/kg.

As for `Nc1ccccc1NC(=O)c1ccc(CNc2nccc(-c3cccnc3)n2)cc1` [MGCD 0103, reference compound], in [2] (Table 22, 120 mg/kg/day, qd x 5, 3 wks, p.o), the “IR (%)” value is 50%.

`O=C(/C=C/c1cccc(S(=O)(=O)Nc2ccccc2)c1)NO` [PXD 101, Belinostat, reference compound] registered an MTD at 2 weeks in [7] of 80 mg/kg. For the same compound, in series [2] (setting [13]), the “IR (%)” value came out at 38%. The half-maximal inhibitory concentration (IC50) in [3] and in series [8] was 100 to 200 nM each time.

In the case of `O=C(CCCCCCC(=O)Nc1ccccc1)NO` [SAHA, vorinostat, reference compound], the “maximum tolerated doses (MTDs)” value in [9] amounted to 100 mg/kg. Besides, the “IR (%)” value in series [2] (Table 18, 100 mg/kg/day, qd x 5, 2 wks, ip) worked out at 46%; in [2] (Table 22, 200 mg/kg/day, qd x 5, 3 wks, p.o), 26%.
